Data reported in publication PMC12388504, “Antiparasitic Effect of Polyphenols and Terpenes from Natural Products Against Trypanosoma cruzi and Leishmania mexicana” (Metabolites, 2025).
Like-named read-outs stand apart in the source and are kept apart here.

Assays:
[1] = system: T. cruzi epimastigotes NINOA strain; assay: Anti-Trypanosoma cruzi activity, epimastigotes NINOA strain (MTT); type: cell-based; conditions: for IC50: 48 h, read-out: T. cruzi IC50 NINOA
Protocol: (§1) Epimastigotes from A1 and the NINOA strains were used to evaluate the trypanocidal activity. Both strains were maintained in liver infusion tryptose (LIT) medium, supplemented with 10% heat-inactivated FBS and 100 U/mL of penicillin plus 100 μg/mL of streptomycin. They were preserved by transferring 1 × 10^6 parasites/mL into a new culture medium every week. […] All compounds were initially prepared at 10 mg/mL, using dimethyl sulfoxide (DMSO) 0.2% as diluent. […] T. cruzi epimastigotes (1 × 10^6/well) were cultured in 96-well microliter plates and incubated for 48 h at 28 °C with the drugs at different concentrations in a final volume of 200 μL. DMSO 0.2% was included as a negative control. […] All assays were carried out in triplicate. The IC50 values were determined by Probit analysis.

[2] = system: T. cruzi epimastigotes A1 strain; assay: Anti-Trypanosoma cruzi activity, epimastigotes A1 strain (MTT); type: cell-based; conditions: for IC50: 48 h
Protocol: as §1

[3] = system: L. mexicana promastigotes MNYC/BZ/62/M379 (M379) strain; assay: Anti-Leishmania mexicana activity, promastigotes M379 reference strain (MTT); type: cell-based; conditions: for IC50: 48 h, read-out: L. mexicana IC50 M379
Protocol: (§2) The IC50 was determined using the Probit statistical tool. Each sample was assayed in triplicate in three independent experiments.

[4] = system: L. mexicana promastigotes FCQEPS native isolate; assay: Anti-Leishmania mexicana activity, promastigotes FCQEPS native isolate (MTT); type: cell-based; conditions: 48 h, read-out: L. mexicana IC50 FCQEPS
Protocol: as §2

[5] = Cytotoxic analysis against J774.2 macrophages (MTT); conditions: mouse
Protocol: (§3) The assay was performed on mouse macrophages from the J774.2 cell line that were cultured in RPMI medium supplemented with 10% SFB, […] penicillin, […] streptomycin, and glutamine (2 mM) at 37 °C and in a 5% CO2 atmosphere. The medium was replaced at 2–3-day intervals. […] Cells in the presence of the maximum concentration of DMSO (0.2%) were included as a negative control; the metabolic activity of the cells was determined following the MTT method. The percentage of cell viability was calculated, and the half-maximal cytotoxic concentration (CC50) was determined by Probit analysis. Three independent assays were performed in triplicate each.

[6] = system: J774.2 macrophage cell line; assay: as above; conditions: for cytotoxicity (in words): J774.2 macrophages
Protocol: as §3

[7] = system: T. cruzi; conditions: cited from earlier work
[8] = system: Tulahuén strain of T. cruzi; set-up: method as in PMID 35698116; conditions: in words; cited from earlier work
[9] = Trypanosoma cruzi, read-out: T. cruzi IC50 A1, epimastigotes, A1 strain, 48 h, MTT
[10] = Trypanosoma cruzi, epimastigotes, NINOA strain, MTT
[11] = Trypanosoma cruzi, epimastigotes, A1 strain, MTT, read-out: T. cruzi IC50 A1
[12] = Leishmania mexicana, promastigotes, M379 strain, MTT
[13] = Leishmania mexicana, promastigotes, FCQEPS native isolate, MTT
[14] = promastigotes, FCQEPS native isolate, MTT

| SMILES | IC50 [1, 10] [µM] | IC50 [2, 11] [µM] | IC50 [3, 12] [µM] | IC50 [4, 13] [µM] | CC50 at 48 h ([5]; J774.2 macrophage cells) [µM] | also measured |
| --- | --- | --- | --- | --- | --- | --- |
| CC(C)=CCC/C(C)=C\CO [Compound 13, nerol] |  |  |  |  |  | IC50 ([1]; Trypanosoma cruzi): 58.3 ± 0.3 µM; IC50 [2, 9]: 125 µM; IC50 ([2]; read-out: T. cruzi IC50 A1, epimastigotes, A1 strain, MTT): 65.7 ± 3.1 µM; IC50 ([3]; Leishmania mexicana): 106 ± 6 µM; IC50 ([4]; Leishmania mexicana): > 200 µM; CC50 at 48 h [5]: > 200 µM |
| OCc1ccc2c(c1)OCO2 [Compound 6, piperonyl alcohol] |  |  |  |  |  | IC50 ([1]; Trypanosoma cruzi): > 200 µM; IC50 [2, 9]: > 200 µM; IC50 ([3]; Leishmania mexicana): 23.61 ± 0.2 µM; IC50 ([4]; Leishmania mexicana): 49.11 ± 0.1 µM; CC50 at 48 h [5]: 62.2 ± 3.2 µM |
| Cc1ccccc1CO [Compound 3, 2-methylbenzyl alcohol] | > 200 | > 200 | 14.2 ± 0.2 |  | 64.2 ± 0.2 | cytotoxicity (in words) [6]: high cytotoxicity |
| Cc1ccc(CO)cc1 [Compound 2, 4-methylbenzyl alcohol] | 51.85 ± 0.01 | 50.4 ± 1.8 | > 200 | > 200 | > 200 |  |
| O=C(Cn1ccnc1[N+](=O)[O-])NCc1ccccc1 [Bzn, Benznidazole, reference compound] | 39.08 ± 0.1 | 30.3 ± 0.03 |  |  |  |  |
| CC1=CC[C@@H](C(C)(C)O)CC1 [Compound 16, α-terpineol] | > 200 | 14 ± 0.2 | 14 ± 0.2 | 75.57 ± 0.03 |  | CC50 at 48 h [5]: 63.4 ± 0.9 µM |
| OCc1ccccc1 [Compound 1, benzyl alcohol] | > 200 | 62.28 ± 0.2 | > 200 | 104 ± 0.3 | 26.5 ± 2.1 |  |
| OCc1ccc2ccccc2c1 [Compound 5, 2-naphtalenemethanol] | 119 | > 200 | 40.1 ± 4.7 | 125 | > 200 | IC50 ([1]; epimastigotes, NINOA strain, MTT): 125 ± 3.2 µM; IC50 [4, 14]: > 200 µM |
| COc1ccc(CCO)cc1 [Compound 8, 4-methoxyphenethyl alcohol] | > 200 | > 200 | 52.08 ± 0.5 | > 200 | > 200 | trypanocidal activity NINOA strain (in words) ([1]; epimastigotes, NINOA strain): no biological activity |
| CC(C)=CCC/C(C)=C/CO [Compound 12, geraniol] | 41 ± 1.2 | 125 ± 5.5 | 57 ± 5.1 | > 200 |  | CC50 at 48 h [5]: > 200 µM |
| Oc1ccc(/C=C/c2cc(O)cc(O)c2)cc1 [resveratrol] |  |  |  |  |  | IC50 ([7]; resveratrol): 40 µM |
| OCCc1ccccc1 [Compound 7, phenethyl alcohol] | 48.24 ± 0.3 | > 200 | 21.7 ± 1.7 | 42.24 ± 0.1 | 89.6 | cytotoxicity (in words) [6]: high cytotoxicity |
| CNC[C@H](O)[C@@H](O)[C@H](O)[C@H](O)CO.[O]=[Sb](=[O])[OH] [Glu, Glucantime, reference compound] |  |  |  |  |  | IC50 ([3]; promastigotes, M379 strain, MTT): > 200 µM; IC50 [4, 14]: 134 ± 4.3 µM; CC50 ([6]; read-out: Cytotoxicity CC50 J774.2, mouse macrophages J774.2, 48 h, MTT): > 273 µM |
| CC1CCC(C(C)C)C(O)C1 (racemic) [dl-menthol] |  |  |  |  |  | IC50 ([7]; dl-menthol): 173 µM |

Second part, led by results:

| IC50 [1, 10] [µM] | IC50 [2, 11] [µM] | IC50 [3, 12] [µM] | IC50 [4, 13] [µM] | SMILES | CC50 at 48 h ([5]; J774.2 macrophage cells) [µM] | also measured |
| --- | --- | --- | --- | --- | --- | --- |
| > 200 | 10.83 ± 0.1 | 5.48 ± 0.1 | 125.4 ± 0.2 | OC1CCCC1 [Compound 18, cyclopentyl alcohol] | 24.4 ± 3.2 |  |
| 27.3 ± 1 | > 200 | > 200 | > 200 | CC(C)=CCO [Compound 10, prenol] | > 200 | leishmanicidal activity M379 strain (in words) ([3]; promastigotes, M379 strain): did not have leishmanicidal activity |
| > 200 | 22.12 ± 0.2 | 12.1 ± 0.2 | 29.06 ± 0.1 | OCC=Cc1ccccc1 [Compound 9, cinnamyl alcohol] | 47.35 ± 0.1 | trypanocidal activity NINOA strain (in words) ([1]; epimastigotes, NINOA strain): no biological activity; cytotoxicity (in words) [6]: high cytotoxicity |
| > 200 | > 200 | 34.4 ± 2.8 | > 200 | C=C(C)[C@H]1CC=C(CO)CC1 [Compound 15] | > 200 | trypanocidal activity A1 strain (in words) ([2]; epimastigotes, A1 strain): no biological activity |
| 53.6 ± 3.3 | 21.54 ± 0.2 | 71 ± 1 | > 200 | CC(C)=CCCC(C)CCO (stereo not drawn) [Compound 11, β-citronellol] | > 200 |  |
| 19.3 ± 0.1 | 7.09 ± 0.1 |  |  | CC1CS(=O)(=O)CCN1/N=C/c1ccc([N+](=O)[O-])o1 (stereo not shown) [Nfx, Nifurtimox, reference compound] |  |  |
| 24.5 ± 0.7 | > 200 | 81.5 ± 4.7 | > 200 | CC(C)[C@H]1CC[C@H](C)C[C@@H]1O [Compound 14, l-(-)-menthol] | > 200 | trypanocidal activity A1 strain (in words) ([2]; epimastigotes, A1 strain): no biological activity; trypanocidal activity against the Tulahuén strain [8]: null trypanocidal activity |
